# Measurements from patent US12697340B2, “Compositions and methods for cellular ageing, stress resilience, autophagy, inflammation and longevity” (JUVN3 Holdings, LLC, priority 2018, dated 2026).
# Tests used:
# Format in all cases: cell-based
# [1] = test system: LC3II/I ratio in C2C12 cells; assay: Autophagy flux (LC3II/I ratio), C2C12 cells; conditions: 24 hours with 400 uM H2O2, FIG. 6A
# Protocol: (§1) Treatments and cells. 6-hour and 24-hour cell culture treatments were with one of the following compounds: 1. Control or “vehicle” (DMSO+phosphate-buffered saline only); 2. Niagen (5 μg/mL); 3. BHB (beta hydroxybutyrate) (30 ug/mL); 4. CBD (cannabidiol) (5 ug/mL); 5. Olive leaf (5 ug/mL); 6. Dynamine (1 ug/mL); 7. Selenium (2 ug/mL); 8. Tributyrin (5 ug/mL)
# (§2) Treatment materials and methods. C2C12 cells were treated with compounds 1-8 as listed above for 6 hours without hydrogen peroxide (H2O2) (termed “unperturbed cells” throughout); or cells were treated with compounds 1-8 above for 24 hours with a concomitant 400 uM hydrogen peroxide (H2O2).
# Autophagy flux (or activity) was assessed by assaying the LC3II/I ratio. This assay has been deemed the “gold standard” in autophagy monitoring (see e.g., Autophagy, 2007 Nov.-Dec.; 3(6):542-5).
# (§3) Western blot analysis was performed using antibodies that detected p-H2AX protein, LC3I, LC3II, 4HNE, and NLRP3 proteins in both the C2C12 and EOMA cells. Ponceau stain was used for protein staining.
# C2C12 cells = assay: Total antioxidant capacity (TEAC assay), C2C12 cells with H2O2; conditions: C2C12 cells co-incubated with H2O2, FIG. 5B
# Protocol: Treatments and cells. 6-hour and 24-hour cell culture treatments were with one of the following compounds: 1. Control or “vehicle” (DMSO+phosphate-buffered saline only); 2. […] (5 μg/mL); 3. BHB (beta hydroxybutyrate) (30 ug/mL); 4. […] Olive leaf (5 ug/mL); 6. Dynamine (1 ug/mL); 7. […] Tributyrin (5 ug/mL) Treatment materials and methods. […] Total antioxidant capacity was assessed using a Trolox equivalent antioxidant capacity (TEAC) assay.
# 4HNE in C2C12 cells = assay: Oxidative stress (4HNE assay), C2C12 cells; conditions: C2C12 cells co-incubated with H2O2, FIG. 6C
# Protocol: as §1, §2
# Oxidative stress was assessed using the 4HNE assay which is a product of cellular lipid oxidation (see e.g., Am J Physiol Cell Physiol. 2016 Oct. 1; 311(4): C537-0543).
# as §3
Compound,autophagy (LC3II/I ratio) [1],total antioxidant capacity (Trolox) (C2C12 cells),total antioxidant capacity (Trolox) (C2C12 cells; listed as Tributyrin),cellular oxidative stress (4HNE) (4HNE in C2C12 cells),total antioxidant capacity (Trolox) (C2C12 cells; listed as Selenium)
"C=C(C)[C@@H]1CCC(C)=C[C@H]1c1c(O)cc(CCCCC)cc1O [CBD, cannabidiol]",increased autophagy,–,–,–,–
CCCC(=O)OCC(COC(=O)CCC)OC(=O)CCC [tributyrin],–,"increase (e.g., restore) total antioxidant activity",increase or restore antioxidant capacity,–,–
"CC(O)CC(=O)O (stereo not drawn) [BHB, beta hydroxybutyrate]",increased autophagy,–,–,decrease cellular oxidative stress,–
[Se] [selenium],increased autophagy,"increase (e.g., restore) total antioxidant activity",–,–,increase or restore antioxidant capacity
